Data reported in ChEMBL document CHEMBL1201862, “PubChem BioAssay data set” (2004).
Blank lines part the entries; values can stand above or below the molecule they belong to. Active and inactive are the calls of the source.

Experiments:
[1] = target: T1, Coagulation factor XII (Homo sapiens, UniProt P00748); experiment: FXIIa inhibitor potency, concentration-response, biochemical (AID 716); type: functional
T1 sequence (P00748 whole entry): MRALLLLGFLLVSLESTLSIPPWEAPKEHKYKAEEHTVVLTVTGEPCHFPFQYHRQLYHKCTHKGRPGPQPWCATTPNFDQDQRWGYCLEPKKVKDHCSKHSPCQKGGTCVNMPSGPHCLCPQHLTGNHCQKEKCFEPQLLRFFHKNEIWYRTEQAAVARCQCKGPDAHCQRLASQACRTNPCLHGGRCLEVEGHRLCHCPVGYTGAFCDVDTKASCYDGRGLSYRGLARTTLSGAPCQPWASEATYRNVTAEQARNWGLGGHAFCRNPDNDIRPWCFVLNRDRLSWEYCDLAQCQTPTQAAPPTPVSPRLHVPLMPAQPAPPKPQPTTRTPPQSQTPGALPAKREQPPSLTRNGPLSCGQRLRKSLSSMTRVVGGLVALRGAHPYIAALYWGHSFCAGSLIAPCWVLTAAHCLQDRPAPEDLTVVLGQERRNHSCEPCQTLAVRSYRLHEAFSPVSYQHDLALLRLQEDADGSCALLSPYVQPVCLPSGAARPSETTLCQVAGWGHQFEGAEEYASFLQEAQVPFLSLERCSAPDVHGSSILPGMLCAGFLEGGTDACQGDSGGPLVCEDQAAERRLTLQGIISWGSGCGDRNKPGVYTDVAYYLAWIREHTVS

[2] = mammalian cell cytotoxicity, dose response, cytotoxicity control, plate reader, cherry-pick samples (AID 504397); type: functional, cell-based
[3] = target: T2, Heat shock factor protein 1 (Mus musculus, UniProt P38532); experiment: inhibition of MG132-induced HSE-luciferase signal, confirmation, cell-based, NIH3T3, luminescence, dose retest (AID 2382); type: functional;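 note: NIH3T3 fibroblasts with HSF1-driven luciferase reporter stressed by proteasome inhibitor MG132; luminescence from HSF1-driven luciferase expression after 8 hours of MG132 stress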
T2 sequence (P38532 whole entry): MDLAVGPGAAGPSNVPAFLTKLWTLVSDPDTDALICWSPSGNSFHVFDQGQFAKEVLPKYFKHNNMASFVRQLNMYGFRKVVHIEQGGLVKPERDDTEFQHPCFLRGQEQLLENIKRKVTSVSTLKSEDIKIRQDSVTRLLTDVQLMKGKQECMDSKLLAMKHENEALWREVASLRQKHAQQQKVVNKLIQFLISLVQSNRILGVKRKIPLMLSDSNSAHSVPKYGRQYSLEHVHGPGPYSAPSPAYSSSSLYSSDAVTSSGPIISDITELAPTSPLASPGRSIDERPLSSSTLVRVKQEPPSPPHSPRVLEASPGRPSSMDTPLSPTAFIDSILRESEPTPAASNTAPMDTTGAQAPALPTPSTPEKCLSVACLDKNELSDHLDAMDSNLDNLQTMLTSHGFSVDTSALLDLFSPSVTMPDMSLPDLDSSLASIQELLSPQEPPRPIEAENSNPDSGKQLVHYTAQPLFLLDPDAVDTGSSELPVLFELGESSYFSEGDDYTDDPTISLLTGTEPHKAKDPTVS

[4] = target: T3, CAAX prenyl protease 2 (Saccharomyces cerevisiae S288c, UniProt Q03530); type: biochemical
T3 sequence (Q03530 whole entry): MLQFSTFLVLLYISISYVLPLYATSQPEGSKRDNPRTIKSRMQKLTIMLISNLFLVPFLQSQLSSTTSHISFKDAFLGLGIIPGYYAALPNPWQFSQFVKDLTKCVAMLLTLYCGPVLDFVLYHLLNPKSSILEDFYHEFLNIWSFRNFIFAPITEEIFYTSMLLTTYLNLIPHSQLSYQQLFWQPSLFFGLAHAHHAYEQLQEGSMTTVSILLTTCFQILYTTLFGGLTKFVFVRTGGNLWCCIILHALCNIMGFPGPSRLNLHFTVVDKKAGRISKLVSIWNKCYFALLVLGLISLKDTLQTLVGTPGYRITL

[5] = target: SUMO-activating enzyme (Homo sapiens, UniProt Q9UBT2); experiment: SUMOylation inhibitor hit validation, confirmation, SUMOylation inhibitor project, biochemical, AlphaScreen (AID 2018); type: functional
[6] = target: T4, Type-1 angiotensin II receptor (Homo sapiens, UniProt P30556); experiment: AT1 receptor agonists, dose response, selectivity assay for APJ receptor agonist project, cell-based, uHTS hits (AID 488865); type: functional;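 note: beta-arrestin recruitment to AT1 measured by enzyme fragment complementation luminescence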
T4 sequence (P30556 whole entry): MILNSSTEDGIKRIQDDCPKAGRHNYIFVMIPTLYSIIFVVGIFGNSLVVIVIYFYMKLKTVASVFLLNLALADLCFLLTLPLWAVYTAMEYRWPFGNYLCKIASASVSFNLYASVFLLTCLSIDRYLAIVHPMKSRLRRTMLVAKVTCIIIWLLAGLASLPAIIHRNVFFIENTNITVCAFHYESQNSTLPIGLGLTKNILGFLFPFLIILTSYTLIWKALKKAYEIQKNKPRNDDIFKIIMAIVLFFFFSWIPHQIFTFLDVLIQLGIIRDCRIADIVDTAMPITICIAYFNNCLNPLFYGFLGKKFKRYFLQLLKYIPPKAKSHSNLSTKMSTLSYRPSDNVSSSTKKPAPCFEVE

[7] = tested on: HEK293; experiment: inhibitors of LMP1-driven NF-kB reporter, dose response, cell-based, HEK293, luciferase, cherry-pick (AID 588343); type: functional; conditions: Homo sapiens
[8] = inhibitors of intracellular T. cruzi replication, confirmation, NIH3T3 host cells, beta-gal luminescence (AID 2044); type: functional, cell-based;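 note: intracellular parasites grown in NIH/3T3 mouse fibroblasts as host cells; luminescent beta-galactosidase reporter signal from transgenic T. cruzi replicating inside host cells; inhibitors lower the luminescence signal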
[9] = cytotoxicity toward NIH3T3 fibroblasts, dose response, counter-screen, cell-based, ATP luminescence, mouse fibroblasts (AID 2010); type: functional;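 note: cells exposed to compound for about 90 hours before reading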
[10] = target: T5, Runt-related transcription factor 1/Core-binding factor subunit beta (Homo sapiens, UniProt Q01196+Q13951); experiment: inhibitors of RUNX1 Runt–CBFb-SMMHC binding, primary screen, biochemical, FRET, Cerulean-Runt, Venus-CBFb-SMMHC, uHTS (AID 1434); type: protein assay;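 note: partner is the CBFb-SMMHC leukemia fusion protein rather than wild-type CBFb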
[11] = target: T5, Runt-related transcription factor 1/Core-binding factor subunit beta; experiment: inhibitors of RUNX1 Runt–CBFb-SMMHC binding, biochemical, TR-FRET (AID 1438); type: protein assay
[12] = NIH-3T3 fibroblast cytotoxicity, dose response, cytotoxicity control, cell-based, fluorescence, Alamar Blue, secondary assay (AID 2327); type: functional;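 note: NIH-3T3 mouse fibroblasts cultured with fluconazole at 8 µg/mL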
[13] = target: T6, Mannose-6-phosphate isomerase (Homo sapiens, UniProt P34949); experiment: human PMI inhibitors, high substrate, primary screen, biochemical, fluorescence intensity, high mannose 6-phosphate (AID 1220)
T6 sequence (P34949 whole entry): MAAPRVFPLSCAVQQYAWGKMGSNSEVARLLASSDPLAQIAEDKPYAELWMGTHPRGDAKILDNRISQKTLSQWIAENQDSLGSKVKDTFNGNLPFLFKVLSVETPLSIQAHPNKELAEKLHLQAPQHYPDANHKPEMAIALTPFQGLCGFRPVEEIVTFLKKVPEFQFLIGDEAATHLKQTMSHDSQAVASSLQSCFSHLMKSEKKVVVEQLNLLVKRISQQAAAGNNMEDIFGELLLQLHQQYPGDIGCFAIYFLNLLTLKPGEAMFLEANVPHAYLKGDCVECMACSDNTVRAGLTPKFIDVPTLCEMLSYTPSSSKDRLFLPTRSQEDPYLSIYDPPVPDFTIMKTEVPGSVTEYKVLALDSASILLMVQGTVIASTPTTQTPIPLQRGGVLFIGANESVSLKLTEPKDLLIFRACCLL

[14] = C. albicans growth with fluconazole, confirmation, fluorescence, retest (AID 2467); type: functional, cell-based
[15] = target: Induced myeloid leukemia cell differentiation protein Mcl-1 (Homo sapiens, UniProt Q07820); type: functional
[16] = target: 26S proteasome non-ATPase regulatory subunit 14 (Homo sapiens, UniProt O00487); experiment: inhibition of proteasome subunit RPN11 – biochemical, fluorescence polarization, uHTS hits, confirmation (AID 602368); type: functional
[17] = target: Prothrombin (Bos taurus, UniProt P00735); experiment: thrombin inhibition, dose response, biochemical, fluorescence polarization, uHTS hits (AID 602369); type: functional
[18] = target: 72 kDa type IV collagenase (Homo sapiens, UniProt P08253); experiment: Dose Response validation of uHTS RPN11 inhibitor hits using a MMP-2 Fluorescence assay.; type: functional
[19] = target: T7, Aryl hydrocarbon receptor (Homo sapiens, UniProt P35869); experiment: Luminescence-based cell-based high throughput dose response assay for activators of the Aryl Hydrocarbon Receptor (AHR). [Related pubchem assays: 2796 (Primary screen (AHR activators in singlicate)), 2845 (Confirmation screen (AHR activators in triplicate)), 434939 (Counterscreen (PXR activators in triplicate)), 2804 (Summary (AHR activators))]; type: ADME
T7 sequence (P35869 whole entry): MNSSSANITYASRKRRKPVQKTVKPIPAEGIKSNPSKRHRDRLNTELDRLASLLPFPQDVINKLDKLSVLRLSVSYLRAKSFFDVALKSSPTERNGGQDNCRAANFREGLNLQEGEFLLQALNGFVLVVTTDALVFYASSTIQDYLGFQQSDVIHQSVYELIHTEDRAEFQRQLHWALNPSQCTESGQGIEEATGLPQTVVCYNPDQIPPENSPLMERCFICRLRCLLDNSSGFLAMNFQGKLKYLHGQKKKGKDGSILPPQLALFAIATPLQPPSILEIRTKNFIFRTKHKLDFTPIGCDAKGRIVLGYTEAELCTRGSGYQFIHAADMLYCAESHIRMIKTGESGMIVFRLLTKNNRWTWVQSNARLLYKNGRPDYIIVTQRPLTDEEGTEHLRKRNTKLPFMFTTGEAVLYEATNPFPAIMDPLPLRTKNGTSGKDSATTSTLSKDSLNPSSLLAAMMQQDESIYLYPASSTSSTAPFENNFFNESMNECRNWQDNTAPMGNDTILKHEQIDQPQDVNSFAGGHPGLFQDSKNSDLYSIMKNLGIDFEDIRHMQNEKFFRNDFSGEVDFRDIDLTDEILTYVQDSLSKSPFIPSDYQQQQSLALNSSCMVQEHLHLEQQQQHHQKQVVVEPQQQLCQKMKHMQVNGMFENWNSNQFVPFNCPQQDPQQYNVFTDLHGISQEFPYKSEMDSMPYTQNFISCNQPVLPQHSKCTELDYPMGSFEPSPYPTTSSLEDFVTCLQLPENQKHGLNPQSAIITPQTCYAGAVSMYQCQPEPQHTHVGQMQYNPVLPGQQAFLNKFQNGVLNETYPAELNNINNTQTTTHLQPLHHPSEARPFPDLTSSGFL

T5 sequence (Q01196 whole entry, the tested form may be a part): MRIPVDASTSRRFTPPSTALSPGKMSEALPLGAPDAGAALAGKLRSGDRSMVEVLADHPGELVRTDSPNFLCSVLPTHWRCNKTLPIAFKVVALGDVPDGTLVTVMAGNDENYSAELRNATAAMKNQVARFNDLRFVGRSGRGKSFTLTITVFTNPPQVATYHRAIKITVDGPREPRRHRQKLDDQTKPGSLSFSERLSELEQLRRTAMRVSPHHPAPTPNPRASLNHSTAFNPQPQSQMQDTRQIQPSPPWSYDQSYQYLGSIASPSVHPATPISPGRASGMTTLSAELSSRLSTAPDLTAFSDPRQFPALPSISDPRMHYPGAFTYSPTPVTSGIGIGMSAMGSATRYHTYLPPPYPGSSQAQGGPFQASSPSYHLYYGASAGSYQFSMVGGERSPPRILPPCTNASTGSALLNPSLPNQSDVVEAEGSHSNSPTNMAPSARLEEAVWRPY
T5 sequence (Q13951 whole entry, the tested form may be a part): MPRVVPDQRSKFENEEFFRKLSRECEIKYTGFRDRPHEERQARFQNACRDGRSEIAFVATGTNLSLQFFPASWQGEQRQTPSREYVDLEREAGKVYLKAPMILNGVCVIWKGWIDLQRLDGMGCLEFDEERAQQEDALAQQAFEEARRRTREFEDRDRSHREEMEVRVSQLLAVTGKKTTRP
Chain of Induced myeloid leukemia cell differentiation protein Mcl-1 (Q07820 whole entry): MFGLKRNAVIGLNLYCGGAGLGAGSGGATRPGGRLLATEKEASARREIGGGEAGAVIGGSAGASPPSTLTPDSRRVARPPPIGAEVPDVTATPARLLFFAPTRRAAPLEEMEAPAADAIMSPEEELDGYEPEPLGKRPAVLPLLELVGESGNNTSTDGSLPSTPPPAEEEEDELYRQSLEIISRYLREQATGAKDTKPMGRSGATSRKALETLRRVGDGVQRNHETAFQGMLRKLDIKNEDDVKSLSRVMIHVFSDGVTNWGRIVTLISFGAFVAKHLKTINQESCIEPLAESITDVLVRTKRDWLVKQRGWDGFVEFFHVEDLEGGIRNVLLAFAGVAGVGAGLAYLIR
Chain of SUMO-activating enzyme (Q9UBE0 whole entry, the tested form may be a part): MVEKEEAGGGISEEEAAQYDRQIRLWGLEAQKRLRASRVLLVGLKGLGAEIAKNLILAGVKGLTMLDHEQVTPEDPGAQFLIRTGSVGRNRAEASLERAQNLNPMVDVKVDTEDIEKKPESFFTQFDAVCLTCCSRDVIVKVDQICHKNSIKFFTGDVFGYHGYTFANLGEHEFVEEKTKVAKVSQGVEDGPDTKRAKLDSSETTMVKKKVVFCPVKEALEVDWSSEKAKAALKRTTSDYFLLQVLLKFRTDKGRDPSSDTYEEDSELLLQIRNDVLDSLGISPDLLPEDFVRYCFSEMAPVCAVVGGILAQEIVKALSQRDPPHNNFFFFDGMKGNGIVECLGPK
Chain of SUMO-activating enzyme (Q9UBT2 whole entry, the tested form may be a part): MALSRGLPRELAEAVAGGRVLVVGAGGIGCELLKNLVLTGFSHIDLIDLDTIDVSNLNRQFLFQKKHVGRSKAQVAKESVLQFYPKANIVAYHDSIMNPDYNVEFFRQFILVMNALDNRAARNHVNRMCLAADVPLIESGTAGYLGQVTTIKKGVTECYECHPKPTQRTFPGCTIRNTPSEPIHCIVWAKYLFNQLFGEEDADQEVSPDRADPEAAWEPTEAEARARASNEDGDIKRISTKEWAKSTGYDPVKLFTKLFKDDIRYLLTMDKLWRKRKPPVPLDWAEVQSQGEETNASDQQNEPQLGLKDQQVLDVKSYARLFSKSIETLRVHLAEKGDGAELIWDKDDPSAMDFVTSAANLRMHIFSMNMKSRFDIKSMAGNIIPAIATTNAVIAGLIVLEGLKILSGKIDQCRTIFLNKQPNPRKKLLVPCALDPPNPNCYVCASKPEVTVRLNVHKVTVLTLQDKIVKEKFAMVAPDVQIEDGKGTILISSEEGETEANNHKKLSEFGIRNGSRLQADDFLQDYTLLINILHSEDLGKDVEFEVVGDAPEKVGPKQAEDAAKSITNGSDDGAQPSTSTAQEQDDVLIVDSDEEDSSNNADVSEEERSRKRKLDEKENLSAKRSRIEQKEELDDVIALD
Chain of 72 kDa type IV collagenase (P08253 whole entry): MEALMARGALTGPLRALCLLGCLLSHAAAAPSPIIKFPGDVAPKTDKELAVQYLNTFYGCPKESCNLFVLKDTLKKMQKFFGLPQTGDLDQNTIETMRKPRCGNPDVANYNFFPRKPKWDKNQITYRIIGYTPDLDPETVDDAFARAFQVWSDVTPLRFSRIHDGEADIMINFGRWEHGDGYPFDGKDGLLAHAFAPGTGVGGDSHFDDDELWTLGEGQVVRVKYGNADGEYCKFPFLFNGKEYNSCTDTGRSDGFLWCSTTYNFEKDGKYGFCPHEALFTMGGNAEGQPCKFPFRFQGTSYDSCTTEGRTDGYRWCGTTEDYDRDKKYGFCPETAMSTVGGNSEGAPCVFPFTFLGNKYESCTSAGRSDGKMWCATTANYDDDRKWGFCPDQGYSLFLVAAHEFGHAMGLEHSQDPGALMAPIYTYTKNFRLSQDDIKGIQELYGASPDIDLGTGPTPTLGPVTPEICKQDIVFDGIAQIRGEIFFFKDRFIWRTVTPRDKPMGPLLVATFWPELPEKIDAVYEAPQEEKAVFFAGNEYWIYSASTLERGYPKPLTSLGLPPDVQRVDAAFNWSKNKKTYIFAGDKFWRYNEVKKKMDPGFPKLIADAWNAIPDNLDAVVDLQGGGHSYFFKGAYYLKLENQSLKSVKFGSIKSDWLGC
Chain of 26S proteasome non-ATPase regulatory subunit 14 (O00487 whole entry): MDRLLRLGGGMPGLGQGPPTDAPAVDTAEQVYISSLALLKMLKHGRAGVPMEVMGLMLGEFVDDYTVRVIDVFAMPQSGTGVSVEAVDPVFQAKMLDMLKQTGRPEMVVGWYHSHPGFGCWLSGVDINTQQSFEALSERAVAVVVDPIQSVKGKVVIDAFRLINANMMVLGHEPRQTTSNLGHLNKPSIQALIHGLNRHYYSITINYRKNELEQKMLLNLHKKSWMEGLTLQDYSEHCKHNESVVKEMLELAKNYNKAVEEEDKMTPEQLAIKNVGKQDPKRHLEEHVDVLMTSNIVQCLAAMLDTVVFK

SMILES: CN(C(=O)c1ccc2c(c1)SC1=NS(=O)(=O)CCN12)C(c1ccccc1)c1ccccc1
AC50 [2]: 138 µM (active)
EC50 [3]: > 195 µM (not active)
AC50 [4]: 2.1 µM (active)

SMILES: Oc1c(N=NC(S)=Nc2ccccc2F)c2ccccc2n1Cc1ccccc1Cl
AC50 [7]: 18.7 µM (active)
AC50 [2]: 210 µM (active)
EC50 [8]: 1.28 µM (active)
EC50 [9]: 17.5 µM (active)

SMILES: O=C(CC1Sc2ccccc2NC1=O)OCc1cc(=O)oc2cc(O)ccc12 (centres undefined)
IC50 [10]: 2.71 µM (active)
IC50 [11]: 19.6 µM (active)

SMILES: Cc1cccc(N2CCc3c2nc2ccc(Br)cc2c3N)c1
AC50 [2]: 94.9 µM (active)
EC50 [12]: 21.4 µM (inconclusive)
IC50 [13]: > 50 µM (not active)
EC50 [14]: 1.67 µM (active)
AC50 [4]: 8.82 µM (active)

SMILES: CC(C)CNC(=O)c1c(N)n(Cc2ccco2)c2nc3ccccc3nc12
IC50 [10]: 1.86 µM (active)
IC50 [15]: 4.4 µM (not active)
IC50 [11]: 11.7 µM (active)

SMILES: CCCCC1=CC2=CC(=O)C(C)(OC(=O)C3CCCC3)C(=O)C2=CO1 (centres undefined)
IC50 [16]: 7.64 µM (active)
IC50 [17]: 7.84 µM (active)
EC50 [6]: > 100 µM (inactive)
IC50 [18]: > 100 µM (inactive)

Now from value to molecule:

IC50 [1]: > 50 µM (inactive)
SMILES: O=C(Nc1nccs1)c1cccc(S(=O)(=O)N2CCCCC2)c1

IC50 [1]: > 50 µM (inactive)
SMILES: CCc1cc2cc(C(=O)Nc3ccccc3F)sc2s1

IC50 [5]: 63.7 µM (active)
SMILES: Cc1ccc(O)c(NC(=O)c2cc3nc4c(c(C(F)(F)F)n3n2)CCc2ccccc2-4)c1

EC50 [6]: > 100 µM (inactive)
SMILES: Cc1ccc(S(=O)(=O)Nc2nc(-c3ccccc3)cs2)cc1

IC50 [10]: > 100 µM (inactive)
IC50 [15]: 6.38 µM (not active)
EC50 [19]: > 91.8 µM (not active)
IC50 [11]: > 100 µM (inactive)
SMILES: COc1cccc2c(=O)c3cccc(N)c3[nH]c12
